Test results published in paper PMC7047268 (ACS Central Science, 2020).

Assays:
5-HT2A = 5-HT2A (Homo sapiens, UniProt P28223); type: cell-based; settings: for Gq agonism for 5-HT2A: agonist mode
5-HT2C [1] = target: T1, 5-HT2C (Homo sapiens, UniProt P28335); assay: cell-based; type: cell-based
T1 sequence (P28335 33-458): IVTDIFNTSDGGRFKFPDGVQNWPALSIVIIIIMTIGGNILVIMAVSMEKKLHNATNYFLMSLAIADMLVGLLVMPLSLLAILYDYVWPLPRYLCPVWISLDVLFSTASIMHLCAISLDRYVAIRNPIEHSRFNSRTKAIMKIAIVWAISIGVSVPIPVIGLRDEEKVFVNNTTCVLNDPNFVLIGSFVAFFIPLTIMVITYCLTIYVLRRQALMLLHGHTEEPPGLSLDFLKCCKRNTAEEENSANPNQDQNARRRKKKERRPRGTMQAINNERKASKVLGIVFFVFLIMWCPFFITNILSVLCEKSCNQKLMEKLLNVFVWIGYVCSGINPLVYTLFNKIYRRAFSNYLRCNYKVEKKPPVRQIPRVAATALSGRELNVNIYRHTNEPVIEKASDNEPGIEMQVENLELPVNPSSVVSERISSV

5-HT2B = 5-HT2B (Homo sapiens, UniProt P41595); assay: cell-based; type: cell-based; settings: for Gq agonism for 5-HT2B: agonist mode
[2] = system: overnight fasting male C57BL/6J mice; assay: Acute feeding suppression; type: in vivo; settings: intraperitoneal; 1857 30 mg/kg, lorcaserin 10 mg/kg; vs vehicle
[3] = target: T2, human 5-HT2C and its mutants (Homo sapiens, UniProt P28335); assay: Tango β-arrestin2 recruitment assay, HTLA cells; type: cell-based; settings: for β-arrestin2 recruitment agonist activity (Tango): wild-type 5-HT2C, agonist mode
T2 sequence (P28335 33-458): T1 sequence (P28335 33-458)

5-HT2C [4] = target: T1, 5-HT2C; type: cell-based
[5] = system: wild-type or mutant 5-HT2C; assay: Radiolabeled ligand binding assay, 3H-mesulergine, transfected CHO cells; set-up: species or system human
[6] = system: diet-induced obesity (DIO) mice; assay: DIO mice feeding suppression; type: in vivo
[7] = 30 mg/kg i.p. daily for 10 days
[8] = 30 mg/kg i.p. daily for 10 days, vs vehicle
[9] = 30 mg/kg i.p. daily, from day 5 until end of study

5-HT2A, sequence (P28223 whole entry): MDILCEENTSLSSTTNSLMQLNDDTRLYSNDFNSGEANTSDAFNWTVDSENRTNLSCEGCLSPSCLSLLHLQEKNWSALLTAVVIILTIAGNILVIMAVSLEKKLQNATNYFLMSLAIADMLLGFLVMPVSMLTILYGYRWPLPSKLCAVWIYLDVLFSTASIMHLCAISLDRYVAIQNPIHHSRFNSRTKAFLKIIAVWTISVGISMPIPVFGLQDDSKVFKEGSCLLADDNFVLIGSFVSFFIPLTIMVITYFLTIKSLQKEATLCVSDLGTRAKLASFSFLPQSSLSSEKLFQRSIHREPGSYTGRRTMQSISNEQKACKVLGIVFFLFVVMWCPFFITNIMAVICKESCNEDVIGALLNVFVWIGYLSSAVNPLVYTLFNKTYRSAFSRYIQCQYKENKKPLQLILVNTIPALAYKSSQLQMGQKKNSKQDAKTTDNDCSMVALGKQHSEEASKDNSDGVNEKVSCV
5-HT2B, sequence (P41595 whole entry): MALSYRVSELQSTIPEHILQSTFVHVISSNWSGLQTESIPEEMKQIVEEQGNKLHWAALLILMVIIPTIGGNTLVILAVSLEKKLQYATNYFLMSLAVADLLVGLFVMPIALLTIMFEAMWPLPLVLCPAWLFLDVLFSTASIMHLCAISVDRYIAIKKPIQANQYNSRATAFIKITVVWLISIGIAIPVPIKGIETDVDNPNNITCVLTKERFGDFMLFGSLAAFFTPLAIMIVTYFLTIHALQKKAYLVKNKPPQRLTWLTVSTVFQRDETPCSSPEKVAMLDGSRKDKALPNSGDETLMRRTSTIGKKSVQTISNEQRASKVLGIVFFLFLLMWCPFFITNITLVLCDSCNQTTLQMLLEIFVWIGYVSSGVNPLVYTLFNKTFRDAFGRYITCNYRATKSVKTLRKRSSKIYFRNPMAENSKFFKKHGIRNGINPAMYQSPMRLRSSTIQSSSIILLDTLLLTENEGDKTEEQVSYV

COc1cc2c3c(c1OC)-c1ccccc1CC3NCC2 (centres unmarked) [Compound 15781, nornuciferine]
Gq agonism for 5-HT2A (5-HT2A): none of them exhibited measurable Gq agonism
EC50 (5-HT2C [1]): 653 nM
Emax (5-HT2C [1]; HEK-293T, read-out: Emax relative to 5-HT): 65.6%
IC50 (5-HT2B): > 10000 nM
Gq agonism for 5-HT2B (5-HT2B): none of them exhibited measurable Gq agonism

C[C@H]1CNCCc2ccc(Cl)cc21 [Lorcaserin, lorcaserin, reference compound]
acute food intake suppression [2]: suppressed food intake up to 2 h postinjection
agonist efficacy class in G protein pathway at 5-HT2C (5-HT2C [1]): full agonist
β-arrestin2 recruitment agonist activity (Tango) [3]: full agonist

(R)-asimilobine [Compound 1857]
β-arrestin2 recruitment agonist activity (BRET) (5-HT2C [4]): does not possess agonist activity
antagonism of β-arrestin2 association (BRET) (5-HT2C [4]; agonist lorcaserin (4 μM)): acts as an antagonist for β-arrestin2 association
acute food intake suppression [2]: reduced food intake from 30 min to 4 h postinjection
enhancement of binding [5]: 6 fold
Gq agonism for 5-HT2A (5-HT2A): none of them exhibited measurable Gq agonism
in vitro potency for 5-HT2C activation lower than that of lorcaserin (5-HT2C [1]): 2 orders of magnitude
Emax relative to 5-HT (5-HT2C [1]; Gq-mediated calcium signaling at 5-HT2C): 86.1%
antagonism of β-arrestin signaling (Tango) ([3]; against agonist ergotamine): acts as an antagonist
β-arrestin2 recruitment agonist activity (Tango) [3]: no β-arrestin recruitment activity
Gq agonism for 5-HT2B (5-HT2B): none of them exhibited measurable Gq agonism
blood glucose relative to vehicle [6, 7]: −20.9%
liver TC and TG levels [6, 7]: decreased liver TC and TG levels
serum total cholesterol (TC) relative to vehicle [6, 7]: −7.9%
serum total triglyceride (TG) relative to vehicle [6, 7]: unchanged
total organ weight of epididymal white adipose tissue (WAT) [6, 8]: −29.3%
total organ weight of inguinal WAT [6, 8]: −46.4%
body weight in DIO mice [6, 9]: weight loss
food intake in DIO mice [6, 9]: Significant reduction of food intake

COc1cc2c3c(c1OC)-c1ccccc1C[C@H]3N(C)CC2 [Compound 15856, Nuciferine]
antagonism of Gq-mediated activity at 5-HT2A (5-HT2A): sub-micromolar potency
antagonism of Gq-mediated activity at 5-HT2C (5-HT2C [1]): sub-micromolar potency
antagonism of Gq-mediated activity at 5-HT2B (5-HT2B): sub-micromolar potency
